Experimental data: BindingDB's records for doi:10.1021/jm990135j (Taisho Pharmaceutical, 1999)
Where a name gives a salt, the structure may show the parent alone.

What was measured:
[1] = In vitro binding affinity at Sigma opioid receptors on guinea pig brain membranes by [3H]3-PPP displacement.
[2] = target: Sigma-2 receptor (guinea pig); test: TIn vitro binding affinity at Sigma opioid receptor type 2 on guinea pig brain membranes by [3H]DTG displacement in the presence of […].
[3] = target: Sigma non-opioid intracellular receptor 1 (Cavia porcellus) (UniProt Q60492); test: In vitro binding affinity at Sigma opioid receptors on guinea pig brain membranes by [3H]-3-PPP displacement.
Sequence of Sigma non-opioid intracellular receptor 1 (Cavia porcellus) (Q60492 whole entry, looked up): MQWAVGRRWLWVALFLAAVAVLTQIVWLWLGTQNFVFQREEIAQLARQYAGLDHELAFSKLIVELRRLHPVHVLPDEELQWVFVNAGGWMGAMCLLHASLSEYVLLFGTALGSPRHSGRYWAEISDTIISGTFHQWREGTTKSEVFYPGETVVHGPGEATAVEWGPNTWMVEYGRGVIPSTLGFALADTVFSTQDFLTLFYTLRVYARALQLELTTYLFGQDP

CCCCC(N)Cc1ccc(OC)c(OCCc2ccccc2)c1 (centres undefined) [1-(4-Methoxy-3-phenethyloxy-benzyl)-pentylamine]
IC50 [1]: 160 nM

CCCCCCC(N)Cc1ccc(OC)c(OCCc2ccccc2)c1 (centres undefined) [1-(4-Methoxy-3-phenethyloxy-benzyl)-heptylamine]
IC50 [1]: 170 nM

CCCCC(Cc1ccc(OC)c(OCCc2ccccc2)c1)N(CCC)CCC (centres undefined) [[1-(4-Methoxy-3-phenethyloxy-benzyl)-pentyl]-dipropyl-amine]
IC50 [1]: 29 nM

CCCCCC(Cc1ccc(OC)c(OCCc2ccccc2)c1)NCCC (centres undefined) [[1-(4-Methoxy-3-phenethyloxy-benzyl)-hexyl]-propyl-amine; hydrochloride]
IC50 [1]: 1.5 nM | IC50 [2]: 110 nM

CCCCCCC(Cc1ccc(OC)c(OCCc2ccccc2)c1)N(CCC)CCC (centres undefined) [[1-(4-Methoxy-3-phenethyloxy-benzyl)-heptyl]-dipropyl-amine]
IC50 [1]: 150 nM

CCCCCCCC(N)Cc1ccc(OC)c(OCCc2ccccc2)c1 (centres undefined) [1-(4-Methoxy-3-phenethyloxy-benzyl)-octylamine]
IC50 [1]: 420 nM

CCCCCC(N)Cc1ccc(OC)c(OCCc2ccccc2)c1 (centres undefined) [1-(4-Methoxy-3-phenethyloxy-benzyl)-hexylamine; hydrochloride]
IC50 [1]: 110 nM

CCCN(CCC)C(C)Cc1ccc(OC)c(OCCc2ccccc2)c1 (centres undefined) [[2-(4-Methoxy-3-phenethyloxy-phenyl)-1-methyl-ethyl]-dipropyl-amine]
IC50 [1]: 12 nM

CCCCCCCCC(Cc1ccc(OC)c(OCCc2ccccc2)c1)N(CCC)CCC (centres undefined) [[1-(4-Methoxy-3-phenethyloxy-benzyl)-nonyl]-dipropyl-amine]
IC50 [1]: > 1000 nM

CCC(N)Cc1ccc(OC)c(OCCc2ccccc2)c1 (centres undefined) [1-(4-Methoxy-3-phenethyloxy-benzyl)-propylamine; hydrochloride]
IC50 [1]: > 1000 nM

CCCC(N)(CCC)Cc1ccc(OC)c(OCCc2ccccc2)c1 [1-(4-Methoxy-3-phenethyloxy-benzyl)-1-propyl-butylamine; compound with (E)-but-2-enedioic acid]
IC50 [3]: > 1000 nM

CCCNC(CC)Cc1ccc(OC)c(OCCc2ccccc2)c1 (centres undefined) [[1-(4-Methoxy-3-phenethyloxy-benzyl)-propyl]-propyl-amine]
IC50 [1]: 8 nM | IC50 [2]: 330 nM

COc1ccc(CC(C)N)cc1OCCc1ccccc1 (centres undefined) [2-(4-Methoxy-3-phenethyloxy-phenyl)-1-methyl-ethylamine; hydrochloride]
IC50 [1]: > 1000 nM

CCCC(Cc1ccc(OC)c(OCCc2ccccc2)c1)N(CCC)CCC (centres undefined) [[1-(4-Methoxy-3-phenethyloxy-benzyl)-butyl]-dipropyl-amine]
IC50 [1]: 9.5 nM | IC50 [2]: 420 nM

CCCCCCC(Cc1ccc(OC)c(OCCc2ccccc2)c1)NCCC (centres undefined) [[1-(4-Methoxy-3-phenethyloxy-benzyl)-heptyl]-propyl-amine]
IC50 [1]: 9 nM | IC50 [2]: 230 nM

CCCNC(C)Cc1ccc(OC)c(OCCc2ccccc2)c1 (centres undefined) [[2-(4-Methoxy-3-phenethyloxy-phenyl)-1-methyl-ethyl]-propyl-amine; hydrochloride]
IC50 [1]: 10 nM

CCCCCCCCC(Cc1ccc(OC)c(OCCc2ccccc2)c1)NCCC (centres undefined) [[1-(4-Methoxy-3-phenethyloxy-benzyl)-nonyl]-propyl-amine]
IC50 [1]: 170 nM

CCCCCCCC(Cc1ccc(OC)c(OCCc2ccccc2)c1)N(CCC)CCC (centres undefined) [[1-(4-Methoxy-3-phenethyloxy-benzyl)-octyl]-dipropyl-amine]
IC50 [1]: 230 nM

CCCCCC(Cc1ccc(OC)c(OCCc2ccccc2)c1)N(CCC)CCC (centres undefined) [[1-(4-Methoxy-3-phenethyloxy-benzyl)-hexyl]-dipropyl-amine; hydrochloride]
IC50 [3]: 30 nM

CCCCCCCCC(N)Cc1ccc(OC)c(OCCc2ccccc2)c1 (centres undefined) [1-(4-Methoxy-3-phenethyloxy-benzyl)-nonylamine]
IC50 [1]: > 1000 nM
